The source of these data is ChEMBL document CHEMBL5154848, “Synthesis of heterocyclic ring-fused analogs of HMG499 as novel degraders of HMG-CoA reductase that lower cholesterol” (Eur J Med Chem, 2022).

Calls of active or inactive are those of the source. No cut-off for these calls is given here.

Series [1] is described as follows: Toxicity in human SV589 cells assessed as cholesterol accumulation in lysosome at 10 uM incubated for 16 hrs by immunofluorescence based confocal microscopy. Type of series: cell-based. As to conditions: sv-589, 16 h.
A short description of series [2]: Downregulation of lovastatin-induced HMGCR expression in CHO-K1 cells assessed as fold change in HMGCR expression at 10 uM incubated for 16 hrs by immunoblot analysis (reference value: 15.2). Type of series: functional, Cricetulus griseus.
The nature of series [3]: Downregulation of HMGCR expression in CHO-K1 cells assessed as fold change in HMGCR expression at 10 uM incubated for 16 hrs by immunoblot analysis (reference value: 1.0). It counts as functional, Cricetulus griseus. On the technique in general: In western blotting, separated proteins are transferred to a membrane and probed.
The target of series [4] is T1, 3-hydroxy-3-methylglutaryl-coenzyme A reductase (Cricetulus griseus) (UniProt P00347).
T1 sequence (whole entry): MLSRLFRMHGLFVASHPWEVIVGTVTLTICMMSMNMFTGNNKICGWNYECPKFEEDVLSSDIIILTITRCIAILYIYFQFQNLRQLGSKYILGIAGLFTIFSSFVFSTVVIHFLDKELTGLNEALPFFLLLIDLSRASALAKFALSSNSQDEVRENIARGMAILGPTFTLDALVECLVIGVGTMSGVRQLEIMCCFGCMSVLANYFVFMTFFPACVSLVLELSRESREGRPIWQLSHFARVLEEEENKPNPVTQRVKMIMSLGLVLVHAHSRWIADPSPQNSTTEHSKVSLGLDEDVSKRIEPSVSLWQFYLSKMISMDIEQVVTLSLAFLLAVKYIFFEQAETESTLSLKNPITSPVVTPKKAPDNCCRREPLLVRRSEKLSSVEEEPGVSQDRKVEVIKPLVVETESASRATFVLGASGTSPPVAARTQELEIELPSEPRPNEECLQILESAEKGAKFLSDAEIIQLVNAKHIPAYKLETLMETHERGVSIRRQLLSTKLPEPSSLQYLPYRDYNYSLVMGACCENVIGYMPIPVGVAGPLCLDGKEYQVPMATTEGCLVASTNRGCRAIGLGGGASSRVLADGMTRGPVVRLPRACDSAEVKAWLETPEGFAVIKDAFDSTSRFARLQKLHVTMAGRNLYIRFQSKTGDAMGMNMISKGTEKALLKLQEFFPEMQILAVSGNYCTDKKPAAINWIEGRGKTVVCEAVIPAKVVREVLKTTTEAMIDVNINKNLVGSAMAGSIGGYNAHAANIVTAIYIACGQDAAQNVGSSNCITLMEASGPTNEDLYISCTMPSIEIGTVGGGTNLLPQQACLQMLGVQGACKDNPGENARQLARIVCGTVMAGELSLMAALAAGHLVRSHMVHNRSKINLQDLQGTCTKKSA
Description: Induction of degradation of wild type HMGCR in CHO-K1 cells by immunoblot analysis. Type of series: cell-based. As to conditions: DDE = dose-dependent effect.

The test system of a further series is CHO-7. Description: Growth inhibition of CHO-7 cells at 0.3 to 10 uM cultured for 7 days in sterol depleted medium in the absence of cholesterol and measured on day 8 by crystal violet staining based microscopic analysis. To be noted: Cricetulus griseus, dose 0.3-10 µM, time 8.0 day. It counts as functional, cell-based.
The subject of series [5] is LX-2. Description: Antiproliferative activity against human LX2 cells assessed as reduction of TGF-beta1 induced proliferation by CCK-8 assay. To be noted: DDE = dose-dependent effect. It counts as functional, cell-based. For orientation: Tetrazolium assays rely on reduction of a dye to a coloured formazan, in cell work by metabolically active cells.
Series [6] deals with LX-2. Description: Downregulation of TGF-beta-1-induced TIMP1 mRNA levels in serum starved human LX2 cells pretreated with TGF-beta-1 for 6 hrs followed by compound treatment for 24 hrs by SYBR green dye based qRT-PCR analysis. It counts as functional, cell-based. To be noted: dose <= 2.0 µM, DDE = dose-dependent effect. Background: In qPCR the cycle at which signal appears reflects the starting amount.

Series [7] deals with LX-2. In words: Downregulation of TGF-beta-1-induced TGF-beta-1 mRNA levels in serum starved human LX2 cells pretreated with TGF-beta-1 for 6 hrs followed by compound treatment for 24 hrs by SYBR green dye based qRT-PCR analysis. As to conditions: dose <= 2.0 µM, DDE = dose-dependent effect. Type of series: functional, cell-based.
The subject of a further series is RAW264.7. In words: Downregulation of LPS-stimulated TNF-alpha mRNA levels in mouse RAW264.7 cells pretreated with LPS for 2 hrs followed by compound treatment for 24 hrs by SYBR green dye based qRT-PCR analysis. Type of series: functional, cell-based. To be noted: dose <= 2.0 µM, DDE = dose-dependent effect.
Series [8] has as its target T2, 3-hydroxy-3-methylglutaryl-coenzyme A reductase (Cricetulus griseus, UniProt P00347).
T2 sequence (P00347 whole entry): T1 sequence (whole entry)
Description: Induction of degradation of endogenous HMGCR in CHO-7 cells assessed as decrease in protein level incubated for 16 hrs in sterol-depleted medium by immunoblot analysis. It counts as cell-based.

`CC(=O)n1ncc2c1C(C)(C)C1=CC[C@H]3[C@@H]4CC[C@H]([C@H](C)CCC(=O)N5CCOCC5)[C@@]4(C)CC[C@@H]3[C@@]1(C)C2`: the Activity result in series [1] is “Non-Toxic”; in series [4] it was “Dde”; in the series with LX-2 [5] it was “Dde”; in the series with LX-2 [6] it was “Dde”; in the series with LX-2 [7], “Dde”; in the series with RAW264.7 it was “Dde”. The entries for the “fold change (FC)” value in series [2] and in series [3] were 0.4 and 0.1, respectively. The inhibition result in the series on CHO-7 was “Active”. For the same compound, the EC50 (in general, the concentration giving half of the maximal effect) in series [8] stood at 0.13 µM.
